# Patent US11026906B2 (priority 2016, dated 2021)
# Entries after “also recorded” stand apart in the source; their conditions may differ. Like-named read-outs stand apart in the source and are kept apart here.
# What was measured:
# [1] = system: men and women having low bone mass; conditions: cited from earlier work
# [2] = in vivo; cited from earlier work
# [3] = Stability of the compositions (storage, light, heating under vacuum)
# [4] = system: subjects with femoral neck BMD less than 0.600 g/cm^2; experiment: Double-blind clinical study, non-vertebral fractures over 3 year follow-up (expected results); conditions: 200 mg strontium daily vs placebo
# Text: In a double-blind clinical study, 80 subjects are divided into two groups (n=40). The control group receives a daily supplement containing 1.8 g of sodium L-lactate (placebo). […] All non-vertebral fractures will be recorded with the exception of the coccyx, skull, jaw, face, phalanx (fingers and toes) and ankle, since these latter are not regarded as being related to osteoporosis.
# [5] = system: subject with osteonecrosis of the jaw and osteoarthritis; experiment: Efficacy study in one subject: daily oral strontium L-lactate; type: in vivo, human
# Method: Likewise, today there are no effective treatments for osteonecrosis of the jaw caused by lengthy use of bone resorption inhibitors (anti-resorptives). […] The test subject experienced deterioration of the jawbone sufficient to loosen their teeth and cause pain when chewing. They received a 200 mg dose of strontium as the L-lactate each day, taken separately from food. […] Over a 3-month period, the subject receiving this treatment experienced a restoration of the jawbone sufficient to set the teeth more firmly and reduce the pain associated with chewing. […] The benefits were so remarkable that the subject continued treatment for at least 8 months, with continuing resolution of the bone and cartilage defects.
# A subject suffered from latent osteonecrosis of the jaw as a result of several years of alendronate treatment for osteoporosis. In addition to loose teeth and jaw pain during chewing due to the osteonecrosis, they suffered from osteoarthritis. Their dentist advised them that the necrosis was so serious they would lose several teeth and might have to change from a normal diet to a soft-food diet. Their arthritis was so severe that they had to give up crocheting and knitting, hobbies they had enjoyed for many years. […] They requested access to strontium L-lactate of the present invention. […] Their treatment continued for 8 months with similar improvements.
# [6] = for Area under the curve (AUC0-∞), Mean / Half-life (T1/2), Mean / Oral Bioavailability, Mean / Rate of elimination (K), Mean / Maximum serum concentration (Cmax), Mean: 10 subjects; for Maximum serum concentration (Cmax), Mean: fasted
# Text: The study was approved by an Institutional Review Board. […] Each provided informed consent to participate in the study.
# On the day of dose administration, the subjects arrived at the clinic fasted. Their qualifications for enrollment were reviewed to ensure compliance. Immediately prior to administration of the test article, an indwelling venous catheter was placed and a blood sample was withdrawn into a trace metal-free tube (the t=0 sample). […] After drinking the test article solution, fasting continued for 2 hours. During the day, however, subjects were provided usual and customary meals. Potential adverse events were monitored.
# Each blood sample was stored appropriately until all samples had been collected for the day. Then the blood samples were centrifuged to separate the serum, and each serum sample was transferred into two trace metal-free vials. The vials were shipped to an independent analytical laboratory for serum strontium analyses.
# One week later, on the day of dose administration, the same subjects arrived at the clinic fasted. Their qualifications for enrollment were reviewed to ensure compliance. Immediately prior to administration of the test article, an indwelling venous catheter was placed and a blood sample was withdrawn into a trace metal-free tube (the t=0 sample). […] After drinking the test article solution, fasting continued for 2 hours. During the day, however, subjects were provided usual and customary meals. Potential adverse events were monitored.
# [7] = daily doses of 0.3-0.6 grams; cited from earlier work
# [8] = about 200 mg strontium per day orally, after 3 months
smiles,measurement,setting,value
O=C([O-])CCC(=O)[O-].[Sr+2] [strontium succinate],benefit in treating osteoporosis,[1]; daily dose of 1.7 grams (680 mg strontium),highly beneficial in treating osteoporosis
N#Cc1c(N(CC(=O)[O-])CC(=O)[O-])sc(C(=O)[O-])c1CC(=O)[O-].[Sr+2].[Sr+2] [strontium ranelate],incidence of fractures,"[1]; daily dose of 2 grams (680 mg strontium), almost a decade of clinical use",significantly reduced incidence of fractures
same,side effects of therapeutic doses of the strontium ion,[1]; human exposure,"does not cause gastric irritation, esophageal cancer, colon cancer, or osteonecrosis of the jaw"
C[C@@H](O)C(=O)O [D-lactate],blood concentration causing acidosis and encephalopathies,[2],≥ 3000 µM
C[C@H](O)C(=O)[O-].C[C@H](O)C(=O)[O-].O.O.O.[Sr+2] [strontium L-lactate trihydrate],stability on exposure to light,[3],stable
same,stability during storage,[3]; 25° C./60% relative humidity,stable
same,racemization on heating,"[3]; solid heated under vacuum, about 100° C. to about 130° C.",No racemization
C[C@H](O)C(=O)[O-].C[C@H](O)C(=O)[O-].[Sr+2] [strontium L-lactate],non-vertebral fractures,[4],significant reduction in all non-vertebral fractures
same,side effects,"[5]; 200 mg strontium per day, at least 8 months",no side effects
same,"osteoarthritis: stiffness, pain, flexibility of hands",[5]; [8],increased flexibility of osteoarthritic hands and fingers; also recorded: the stiffness and pain of their osteoarthritis had significantly abated
same,osteonecrosis of the jaw: teeth setting and pain when chewing,[5]; [8],reduced the injury and pain associated with osteonecrosis of the jaw; also recorded: their teeth were more set in their jawbone and that they experienced less pain when chewing
same,average serum concentration of strontium compared with strontium ranelate,"[6]; 170 mg dose of strontium as L-lactate vs 680 mg dose of strontium as ranelate (U.S. Pat. No. 7,595,342)",approximately equaled the serum concentration of strontium achieved by ingesting a 680 mg dose of strontium as the ranelate; also recorded: approximately equal to the serum concentrations of strontium provided by 680 mg of water-insoluble strontium ranelate
same,time at which average serum strontium concentration reached a maximum,[6]; after ingesting a solution of strontium L-lactate in water,about 3 hr
same,adverse effects,"[6]; after ingesting any of three escalating doses (170, 340, 680 mg strontium)",no adverse effects
same,"Area under the curve (AUC0-∞), Mean",[6]; oral dose 170 mg strontium,47.8 mg Sr/L · h
same,"Half-life (T1/2), Mean",[6]; oral dose 170 mg strontium,12.3
same,"Oral Bioavailability, Mean",[6]; oral dose 170 mg strontium,0.94
same,"Rate of elimination (K), Mean",[6]; oral dose 170 mg strontium,0.06 h⁻¹
same,"Area under the curve (AUC0-∞), Mean",[6]; oral dose 340 mg strontium,115.6 mg Sr/L · h
same,"Half-life (T1/2), Mean",[6]; oral dose 340 mg strontium,12.1
same,"Oral Bioavailability, Mean",[6]; oral dose 340 mg strontium,0.93
same,"Rate of elimination (K), Mean",[6]; oral dose 340 mg strontium,0.06 h⁻¹
same,"Area under the curve (AUC0-∞), Mean",[6]; oral dose 680 mg strontium,185.0 mg Sr/L · h
same,"Half-life (T1/2), Mean",[6]; oral dose 680 mg strontium,14.0
same,"Oral Bioavailability, Mean",[6]; oral dose 680 mg strontium,0.94
same,"Rate of elimination (K), Mean",[6]; oral dose 680 mg strontium,0.05 h⁻¹
same,"Maximum serum concentration (Cmax), Mean",[6]; single oral dose 340 mg strontium as strontium L-lactate in 100 mL water,6.3 mg Sr/L
same,"Maximum serum concentration (Cmax), Mean",[6]; single oral dose 680 mg strontium as strontium L-lactate in 100 mL water,9.3 mg Sr/L
CC(O)C(=O)[O-].CC(O)C(=O)[O-].[Sr+2] (centres unmarked) [strontium lactate],albumin in the urine,[7],decrease albumin in the urine
